Holding throughout (assay): Ba/F3 cell viability, Cell Titer Glo
In general terms: ATP-based viability assays read luminescence as a measure of living cells.

The target in one assay is EGFR L858R/V834L (Homo sapiens, UniProt P00533, L858R/V834L). The settings on record: read-out: IC50 Values; Ba/F3 cells expressing EGFR L858R/V834L, 72 hours.
The target of the next assay is EGFR L858R/L792H (Homo sapiens, UniProt P00533, L792H/L858R). The settings on record: read-out: IC50 Values; Ba/F3 cells expressing EGFR L858R/L792H, 72 hours.
The target in the next assay is EGFR G719A (Homo sapiens, UniProt P00533, G719A). The settings on record: read-out: IC50 Values; Ba/F3 cells expressing EGFR G719A, 72 hours.
The target of another assay is EGFR H773insNPH (Homo sapiens, UniProt P00533, INS773NPH). To be noted: read-out: IC50 Values; Ba/F3 cells expressing EGFR H773insNPH, 72 hours.
The target of a further assay is EGFR S720P (Homo sapiens, UniProt P00533, S720P). The settings on record: read-out: IC50 Values; Ba/F3 cells expressing EGFR S720P, 72 hours.
A further assay concerns the target EGFR V774M (Homo sapiens, UniProt P00533, V774M). To be noted: read-out: IC50 Values; Ba/F3 cells expressing EGFR V774M, 72 hours.
A further assay concerns the target EGFR E709K G719S (Homo sapiens, UniProt P00533, E709K/G719S). To be noted: read-out: IC50 Values; Ba/F3 cells expressing EGFR E709K G719S, 72 hours.
Another assay concerns the target EGFR Ex19delT790M L718V (Homo sapiens, UniProt P00533, DEL746-750/L718V/T790M). To be noted: read-out: IC50 Values; Ba/F3 cells expressing EGFR Ex19delT790M L718V, 72 hours.
The target of the next assay is EGFR S768I V774M (Homo sapiens, UniProt P00533, S768I/V774M). The settings on record: read-out: IC50 Values; Ba/F3 cells expressing EGFR S768I V774M, 72 hours.

pIC50: −log10 of the molar value.

As for `C=CC(=O)N1CC[C@@H](Oc2nc(Nc3ccc(N4CCC(N5CCN(C)CC5)CC4)cc3)c(C(N)=O)nc2CC)C1` [Naquotinib], the pIC50 was 8.14 on EGFR L858R/V834L; 7.46 at EGFR L858R/L792H; 7.74 at EGFR G719A; 6.84 at EGFR H773insNPH; 7.28 on EGFR S720P; 7.41 on EGFR V774M. Besides, the pIC50 at EGFR E709K G719S was 7.82; at EGFR Ex19delT790M L718V it was 8.11; on EGFR S768I V774M, 7.18.

In general, pIC50 refers to the negative decadic logarithm of the IC50, by convention in mol/L.

For the origin of these results see patent US20260240847A1, “COMPOUNDS WITH ANTI-TUMOR ACTIVITY AGAINST CANCER CELLS BEARING TYROSINE KINASE INHIBITOR RESISTANT EGFR MUTATIONS” (BOARD OF REGENTS, THE UNIVERSITY OF TEXAS SYSTEM, priority 2019, published 2026).
